Results: publication PMC4192806 (Endocrinology and Metabolism, 2014)
No end group written: not given here.

Experiments:
human GLP1R = human GLP1R (Homo sapiens, UniProt P43220); experiment: CRE-luc luciferase assay in GLP1R and CRE-luc cotransfected HEK293T cells; format: cell-based
[1] = biological target: DPP-IV activity of fetal bovine serum (Bos taurus, UniProt P81425); experiment: Stability in 100% FBS, residual activity by GLP1R/CRE-luc luciferase assay; format: in vitro ADME; settings: FBS incubation, 37℃
Sequence of DPP-IV activity of fetal bovine serum (P81425 38-765 limits assumed): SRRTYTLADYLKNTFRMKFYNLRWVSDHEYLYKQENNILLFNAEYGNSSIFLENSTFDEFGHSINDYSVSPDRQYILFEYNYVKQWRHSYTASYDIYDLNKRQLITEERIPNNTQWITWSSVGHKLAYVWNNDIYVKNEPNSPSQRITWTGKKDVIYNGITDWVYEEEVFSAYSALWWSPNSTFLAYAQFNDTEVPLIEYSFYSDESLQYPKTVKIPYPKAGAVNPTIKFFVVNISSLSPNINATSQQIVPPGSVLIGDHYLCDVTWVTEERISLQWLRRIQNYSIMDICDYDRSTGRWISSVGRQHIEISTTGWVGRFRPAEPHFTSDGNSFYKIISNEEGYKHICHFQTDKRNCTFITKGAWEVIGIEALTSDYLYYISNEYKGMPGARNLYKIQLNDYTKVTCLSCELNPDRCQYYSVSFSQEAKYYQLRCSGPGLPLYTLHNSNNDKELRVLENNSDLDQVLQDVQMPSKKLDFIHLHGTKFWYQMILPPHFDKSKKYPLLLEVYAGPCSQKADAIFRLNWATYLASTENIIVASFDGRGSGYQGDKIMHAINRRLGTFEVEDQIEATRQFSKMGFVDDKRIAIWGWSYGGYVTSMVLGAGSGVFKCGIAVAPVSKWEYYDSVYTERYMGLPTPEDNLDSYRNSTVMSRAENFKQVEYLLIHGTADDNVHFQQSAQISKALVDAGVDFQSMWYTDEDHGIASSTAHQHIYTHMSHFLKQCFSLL

Sequence of human GLP1R (P43220 24-463): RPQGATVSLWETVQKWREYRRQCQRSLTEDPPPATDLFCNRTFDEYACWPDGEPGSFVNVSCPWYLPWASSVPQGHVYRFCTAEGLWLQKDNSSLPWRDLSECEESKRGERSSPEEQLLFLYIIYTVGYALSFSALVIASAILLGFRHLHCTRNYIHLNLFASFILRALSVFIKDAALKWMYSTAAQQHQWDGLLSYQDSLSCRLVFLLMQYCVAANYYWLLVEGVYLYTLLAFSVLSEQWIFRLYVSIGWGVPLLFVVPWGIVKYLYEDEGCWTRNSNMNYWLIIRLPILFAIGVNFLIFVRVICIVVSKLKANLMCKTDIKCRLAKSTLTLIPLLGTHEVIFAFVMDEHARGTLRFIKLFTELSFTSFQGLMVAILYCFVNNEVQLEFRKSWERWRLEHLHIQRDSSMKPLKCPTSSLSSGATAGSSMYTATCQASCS

HSEGTFTNDMTNYLEEKAAKEFVGWLIKGGPSSGAPPPS [xGLP-E4]
EC50 (human GLP1R): 0.155 nM | stability in serum (overall comparison, words) [1]: more stable in serum than wild-type human and xGLP

HAEGTFTNDMTNYLEEKAAKEFVGWLIKGR-NH2 [xGLP, Xenopus GLP-1, reference compound]
EC50 (human GLP1R): 0.832 nM
